The text below walks through data of ChEMBL document CHEMBL1201862, “PubChem BioAssay data set” (2004).

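Each compound was tested at five concentrations against cells in 96-well plates for 48 hours. GI50 marks 50% less growth.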 Active and inactive are the calls of the source. No stated cut-off is given here; in the data, active = GI50 up to about 1.1 µM and inactive = higher.

Some test systems named below: NCI-H23; NCI/ADR-RES; M14; 786-0; U-251; Malme-3M; MDA-MB-435; UACC-62; HL-60; UO-31; T47D; RPMI-8226; LOX IMVI; OVCAR-5; MOLT-4; SF-295; IGROV-1; DU-145; HCC 2998.
Holding throughout (assay): growth of human tumour cells (NCI), 48 h

Regarding `O=C(O)CC1(C(=O)O)CCCCC1`, the GI50 in the assay with NCI-H23, in the assay with NCI/ADR-RES, in the assay with M14, in the assay with 786-0, in the assay with U-251 and in the assay on Malme-3M was > 100 µM (inactive) in each case. Moreover, the GI50 in the assay on MDA-MB-435, in the assay on UACC-62, with HL-60, in the assay on UO-31, in the assay with T47D and in the assay with RPMI-8226 was > 100 µM (inactive) each time. Further, the GI50 in the assay with LOX IMVI, in the assay with OVCAR-5, in the assay on MOLT-4, with SF-295, in the assay on IGROV-1 and with DU-145 was > 100 µM (inactive) each time. The GI50 in the assay with HCC 2998 is > 100 µM (inactive).

Take `CN(C)CCCNC(=O)CCNC(=O)c1cc(NC(=O)c2cc(NC(=O)c3cc(NC(=O)c4nccn4C)cn3C)cn2C)cn1C`: the GI50 in the assay on NCI-H23 is > 100 µM (inactive); with NCI/ADR-RES, > 100 µM (inactive); in the assay on M14, > 100 µM (inactive); with 786-0, > 100 µM (inactive); in the assay with U-251, 13.4 µM (inactive); in the assay on Malme-3M it was > 100 µM (inactive). Also, the GI50 in the assay with MDA-MB-435 is > 100 µM (inactive); with UACC-62 it was > 100 µM (inactive); in the assay on HL-60 it was 18.8 µM (inactive); with UO-31, > 100 µM (inactive); in the assay on T47D it was 31 µM (inactive); in the assay on RPMI-8226 it was > 100 µM (inactive). The GI50 is 21.9 µM (inactive) in the assay with LOX IMVI; > 100 µM (inactive) with OVCAR-5; > 100 µM (inactive) with MOLT-4; > 100 µM (inactive) in the assay with SF-295; > 100 µM (inactive) with IGROV-1; > 100 µM (inactive) in the assay on DU-145. For the same molecule, the GI50 in the assay on HCC 2998 is > 100 µM (inactive).

`COC(=O)C1Cc2cc3c(cc2C1=O)CCC3` (stereo not drawn): the GI50 in the assay on NCI-H23, in the assay with NCI/ADR-RES, in the assay on M14, in the assay with 786-0, in the assay with U-251 and in the assay on Malme-3M was > 100 µM (inactive) each time. In addition, the GI50 in the assay with MDA-MB-435, with UACC-62, with HL-60, in the assay on UO-31, in the assay on T47D and in the assay on RPMI-8226 was > 100 µM (inactive) throughout. The GI50 is > 100 µM (inactive) in the assay with LOX IMVI; > 100 µM (inactive) with OVCAR-5; 68.7 µM (inactive) with MOLT-4; > 100 µM (inactive) in the assay on SF-295; > 100 µM (inactive) in the assay on IGROV-1; > 100 µM (inactive) in the assay on DU-145. The GI50 in the assay on HCC 2998 was > 100 µM (inactive).

On to `CCOC(=O)N(C)C(=C(F)F)C(F)(F)F`, for which the GI50 was 20.5 µM (inactive) in the assay on NCI-H23; 34.6 µM (inactive) with NCI/ADR-RES; 16.8 µM (inactive) in the assay with M14; 21.7 µM (inactive) with 786-0; 30.4 µM (inactive) in the assay on U-251; 14.6 µM (inactive) in the assay with Malme-3M. In addition, the GI50 in the assay with MDA-MB-435 is 22.8 µM (inactive); in the assay with UACC-62 it was > 10 µM (inactive); in the assay with HL-60 it was 20.4 µM (inactive); in the assay with UO-31, 32.7 µM (inactive); with T47D it was 26.8 µM (inactive); with RPMI-8226, 16.4 µM (inactive). Moreover, the GI50 with LOX IMVI is 23 µM (inactive); with OVCAR-5 it was 35.5 µM (inactive); in the assay on MOLT-4, 21.7 µM (inactive); in the assay on SF-295 it was 57.5 µM (inactive); with IGROV-1, 21.2 µM (inactive); in the assay with DU-145, 33.2 µM (inactive). Besides, the GI50 with HCC 2998 is 20.6 µM (inactive).

With `COC1CC(OC2C(C)OC(OC3C(C)OC(OC4C(O)CC(O[C@H]5CC[C@@]6(C)C(=CC[C@]7(O)[C@@H]6C[C@@H](OC(=O)/C=C/c6ccccc6)[C@@]6(C)[C@]7(O)CC[C@@]6(O)C(C)=O)C5)OC4C)CC3OC)CC2OC)OC(C)C1O` (stereo partly drawn), the GI50 with NCI-H23, in the assay on NCI/ADR-RES, in the assay with M14, in the assay with 786-0, with U-251 and in the assay on Malme-3M was > 6.25 µM (inactive) throughout. In addition, the GI50 with MDA-MB-435 is > 6.25 µM (inactive); with UACC-62 it was > 6.25 µM (inactive); in the assay with HL-60 it was > 6.25 µM (inactive); in the assay on UO-31 it was 4.52 µM (inactive); with T47D it was > 6.25 µM (inactive); in the assay with RPMI-8226 it was > 6.25 µM (inactive). Also, the GI50 in the assay on LOX IMVI, in the assay on OVCAR-5, in the assay on MOLT-4, in the assay on SF-295, in the assay with IGROV-1 and in the assay on DU-145 was > 6.25 µM (inactive) each time. Moreover, the GI50 in the assay with HCC 2998 was > 6.25 µM (inactive).

Turning to `O=C(O)c1ccc(NNC(=O)c2cccc3c(=O)c4ccccc4[nH]c23)cc1`, the GI50 in the assay with NCI-H23 was > 100 µM (inactive); in the assay with NCI/ADR-RES, > 100 µM (inactive); with M14 it was > 100 µM (inactive); with 786-0, > 100 µM (inactive); in the assay with U-251, 80.7 µM (inactive); with Malme-3M, 97.9 µM (inactive). Moreover, the GI50 in the assay on MDA-MB-435 is > 100 µM (inactive); with UACC-62 it was > 100 µM (inactive); with HL-60, 50.8 µM (inactive); with UO-31, 89.7 µM (inactive); in the assay on T47D, 31.6 µM (inactive); with RPMI-8226 it was > 100 µM (inactive). Moreover, the GI50 in the assay with LOX IMVI is 44.6 µM (inactive); with OVCAR-5, > 100 µM (inactive); in the assay with MOLT-4, 78.9 µM (inactive); in the assay with SF-295 it was > 100 µM (inactive); with IGROV-1 it was > 100 µM (inactive); with DU-145, > 100 µM (inactive). Also, the GI50 in the assay on HCC 2998 is > 100 µM (inactive).

As to `CN(C)CCn1c(=O)c2ccc3c4c(nn3CCN(C)C)c3cc(N)ccc3n(c1=O)c24`, the GI50 with NCI-H23 was < 0.01 µM (active); with NCI/ADR-RES it was 0.0349 µM (active); in the assay with M14, 0.0259 µM (active); in the assay on 786-0, < 0.01 µM (active); in the assay on U-251 it was < 0.0111 µM (active); in the assay with Malme-3M it was 0.0667 µM (active). In addition, the GI50 was < 0.0209 µM (active) in the assay on MDA-MB-435; 0.0902 µM (active) in the assay with UACC-62; 0.0279 µM (active) in the assay with HL-60; < 0.0132 µM (active) with UO-31; 0.0312 µM (active) in the assay on T47D; < 0.01 µM (active) in the assay with RPMI-8226. Also, the GI50 is 0.0154 µM (active) with LOX IMVI; < 0.027 µM (active) in the assay with OVCAR-5; < 0.011 µM (active) with MOLT-4; 0.0145 µM (active) with SF-295; < 0.015 µM (active) in the assay with IGROV-1; < 0.0167 µM (active) in the assay on DU-145. Also, the GI50 in the assay with HCC 2998 is < 0.01 µM (active).
